Data as given in the NIST ThermoML archive (doi:10.1021/je0342522).
± gives the expanded uncertainty stated by the source.

Columns and labels:
[1] = Liquid
[2] = excess molar enthalpy (molar enthalpy of mixing); xn = mol fraction of the nth substance listed; settings: 323.15 K, 4100 kPa, Liquid, Flow calorimetry

OCCO [1,2-ethanediol]
vapor or sublimation pressure ([1]; 333.15 K): 0.22 ± 0.04 kPa
vapor or sublimation pressure ([1]; 353.15 K): 0.77 ± 0.05 kPa

CC(=O)c1ccccc1 [acetophenone]
vapor or sublimation pressure ([1]; 323.27 K): 0.34 ± 0.042 kPa

C=CC [propene]
vapor or sublimation pressure ([1]; 323.27 K): 2058.9 ± 14 kPa

C=CC [propene] + CC(=O)c1ccccc1
excess molar enthalpy ([2]; x1 = 0.0702): 0.054 ± 0.002 kJ/mol
excess molar enthalpy ([2]; x1 = 0.1375): 0.105 ± 0.003 kJ/mol
excess molar enthalpy ([2]; x1 = 0.202): 0.148 ± 0.003 kJ/mol
excess molar enthalpy ([2]; x1 = 0.264): 0.188 ± 0.004 kJ/mol
excess molar enthalpy ([2]; x1 = 0.3235): 0.213 ± 0.005 kJ/mol
excess molar enthalpy ([2]; x1 = 0.4086): 0.24 ± 0.005 kJ/mol
excess molar enthalpy ([2]; x1 = 0.4889): 0.25 ± 0.006 kJ/mol
excess molar enthalpy ([2]; x1 = 0.5893): 0.246 ± 0.006 kJ/mol
excess molar enthalpy ([2]; x1 = 0.6828): 0.218 ± 0.005 kJ/mol
excess molar enthalpy ([2]; x1 = 0.7487): 0.184 ± 0.004 kJ/mol
excess molar enthalpy ([2]; x1 = 0.8115): 0.142 ± 0.003 kJ/mol
excess molar enthalpy ([2]; x1 = 0.8516): 0.113 ± 0.003 kJ/mol
excess molar enthalpy ([2]; x1 = 0.8905): 0.082 ± 0.002 kJ/mol
excess molar enthalpy ([2]; x1 = 0.9281): 0.052 ± 0.002 kJ/mol
excess molar enthalpy ([2]; x1 = 0.9646): 0.025 ± 0.001 kJ/mol

O [water]
vapor or sublimation pressure ([1]; 333.15 K): 19.93 ± 0.17 kPa
vapor or sublimation pressure ([1]; 353.15 K): 47.44 ± 0.35 kPa
